What was measured:
[1] = system: Human lung fibroblasts (LL47); experiment: qPCR of TGF-β-induced gene expression in human lung fibroblasts LL47; format: cell-based; conditions: OSI-632 1 mM as printed; LL47, 24 hours
Procedure: (§1) IPF-LL29, IPF-LL97A, and human lung fibroblast LL47 cell lines were purchased from ATCC. Mouse lung fibroblasts were isolated from the lungs of male C57BL/6J mice. Cells were grown at 37° C. under 5% CO2, 95% ambient atmosphere and maintained in Dulbecco's […] (DMEM) supplemented with 10% FBS (Sigma) and 1% Penn Strep.
(§2) FIGS. 3A and 3B. Human lung fibroblast LL47 and mouse primary lung fibroblasts isolated from mouse lungs were incubated with TGF-β alone at 5 ng/ml or TGF-β with indicated drugs for 24 hours. Same method as outlined in FIGS. 2A and 2B was used to measure the mRNA expression of indicated human or mouse genes.

[2] = system: IPF-LL29 and IPF-LL97A cells; experiment: qPCR of TGF-β-induced gene expression in IPF-LL29 and IPF-LL97A cells; format: cell-based, human; conditions: human lung fibroblast cell lines derived from IPF patients
Procedure: as §1
(§3) FIGS. 2A and 2B. IPF-29 (FIG. 2A) or IPF-97A (FIG. 2B) cells were incubated with TGF-β alone at 5 ng/ml or TGF-β with indicated drugs for 48 hours and 5 days. Total cellular RNA was isolated using a RNeasy Mini Kit (QIAGEN). 1 μg of total RNA was reverse transcribed into first-strand cDNA using an RT2 First Strand Kit (QIAGEN). The resultant cDNA was subjected to qPCR using indicated human primers to measure the changes in mRNA expression of indicated human genes.

[3] = system: LX2 cells; experiment: qPCR of TGF-β-induced gene expression in LX2 cells; format: cell-based, human
Procedure: (§4) LX2 cells were obtained from Sigma Aldrich (Cat #SCC064). LX2 cells were grown at 37° C. under 5% CO2, 95% ambient atmosphere and maintained in Dulbecco's […] (DMEM) supplemented with 10% FBS (Sigma) and 1% Penn Strep.
as §3, with “10B” for “2A”, “10C: LX2” for “2B. IPF-29 (FIG. 2A) or IPF-97A (FIG. 2B)”, “6.5” for “5”, “hours.” for “hours and 5 days.”

[4] = system: TGF-β activity in LX2 cells; experiment: SMAD2/3 luciferase reporter assay of TGF-β activity in LX2 cells; format: cell-based, human
Description: In preliminary studies, a well-established, culture-activated human hepatic stellate cell model (LX2, initially established by Scott Friedman as described in Xu, L. et al., Human hepatic stellate cell lines, LX-1 and LX-2: new tools for analysis of hepatic fibrosis. Gut 54, 142-151 (2005), incorporated herein by reference in its entirety) was used and a set of 32 computationally chosen, broad-specific kinase inhibitors that collectively target a broad range of kinases were screened. Each drug was examined at eight concentrations, and its effect on the activity of TGF-β (measured by SMAD2/3 luciferase reporter) and on aHSC cell viability was scored. 1536 data points were then analyzed to develop regression modeling to predict the response to >400 drugs (FIG. 9A). […] (FIG. 9B).
as §4

[5] = system: VEGFR; experiment: Kinome-profiling, VEGFR; format: biochemical; conditions: at 500 nM
[6] = system: mouse lung fibroblasts; experiment: qPCR of TGF-β-induced gene expression in mouse primary lung fibroblasts; format: cell-based; conditions: TGF-β 5 ng/ml, 24 hours
Procedure: as §1, §2

[7] = system: SMAD2/3; experiment: SMAD firefly luciferase TGF-β reporter assay in IPF-LL29 cells; format: cell-based, human; conditions: TGF-β 5 ng/ml, 24 hour
Procedure: as §1
FIG. 1A. A TGF-β reporter cell line was generated by transducing a SMAD firefly luciferase reporter (Cellomics Tech, Cat #PLV-10099-50) into IPF-LL29 cells. […] 24 hours later, luciferase substrate was added to the cells and luciferase signal was measured by Bright-Glo reagent (Promega) using a luminescent plate reader. The intensity of the signal correlates with the activity of SMAD2/3.

[8] = system: CCl4-induced fibrosis; experiment: Carbon tetrachloride (CCl4)-induced liver fibrosis mouse model; format: in vivo; conditions: vs CCl4-only treated mouse livers tissues; RPPA, IHC
[9] = system: SMAD2 phosphorylation; experiment: Immunoblot of TGF-β-mediated SMAD2 phosphorylation in LX2 cells; format: cell-based, human

Structure (SMILES): NC(=O)c1c(OCc2c(F)cc(Br)cc2F)nsc1NC(=O)NCCCCN1CCCC1 [OSI-632, 3-(4-bromo-2,6-difluoro-benzyloxy)-5-[3-(4-pyrrolidin-1-yl-butyl)-ureido]-isothiazole-4-carboxylic acid amide]
- TGFb-induced expression of COL1A1, ACTA2, and FN1 and of indicated proliferation stimuli [1]: inhibited
- TGF-β-induced expression of myofibroblast activation markers αSMA, COL1A1, COL3A1 and FN1 ([2]; 48 hours and 5 days): decreased
- expression of myofibroblast proliferation stimuli TGFB1, CTGF, IL-11, FGF2 and VEGFA ([2]; TGF-β 5 ng/ml): significant decrease
- expression of integrins (ITGAV and ITGB6) and HSC proliferation stimuli TGFB2, PDGFA, PDGFB, CTGF, VEGFA, and CCL5 [3]: significant decrease
- inhibition of expression of COL1A1 (FIG. 10C) [3]: 2 fold
- inhibition of expression of COL1A2 (FIG. 10C) [3]: 3 fold
- inhibition of expression of COL5A1 (FIG. 10C) [3]: 5 fold
- decrease in TGF-β-induced expression of COL1A1 (FIG. 10B) ([3]; 48 hours): 2 fold
- decrease in TGF-β-induced expression of αSMA (FIG. 10B) ([3]; 48 hours): 2 fold
- IC50 ([4]; Homo sapiens, LX-2, SMAD2/3 luciferase reporter): 0.0137 µM
- block of TGF-β activity compared with galunisertib and pirfenidone ([4]; LX2 cells): outperformed
- inhibition of VEGFR [5]: ~75%
- expression of indicated fibroblast activation and proliferation factors [6]: inhibited expression
- SMAD2/3 activity (luciferase reporter, dose response) [7]: inhibited SMAD2/3 activity
- CCl4-induced phosphorylation of Smad2, Pdgfrb, Fgfr, Src, Nfκβ, and STAT3 [8]: significantly decreased
- activation of TGF-β-mediated SMAD2 phosphorylation (immunoblot) [9]: blocks activation

— US20230301972A1, “ANTI-FIBROTIC COMPOSITION AND RELATED METHODS” (Fred Hutchinson Cancer Center, priority 2020, published 2023)
